Data taken from US20260183295A1, “METHODS AND COMPOSITIONS FOR TREATING CANCER” (Onconova Therapeutics, Inc., priority 2022, published 2026).

Legend:
Format in all cases: cell-based
[1] = test system: BUB1 in MDA-MB-468; test: BUB1 levels after 72 hours treatment; details: MDA-MB-468 (TNBC)
Experimental: (§1) The effects on the different treatment conditions on BUB 1 levels and PARP cleavage were also assessed. For both MNA-MB-231 cells, Compound 1 alone or with HCQ or SBI decreased BUB1 levels and cleaved PARP with […] decreases in cell viability observed for all treatments except Compound 1+SBI in MMA-MB-231 cells. The effects of Compound 1 with or without autophagy inhibitors was less pronounced in HCC-1937 cells.

[2] = test system: BUB1 in MDA-MB-231; test: BUB1 levels after 72 hours treatment; details: MDA-MB-231 (TNBC)
Experimental: as §1

[3] = test system: p21; test: Western blot, MDA-MB-231 cells, 24 hours; details: 2.5, 5, 10 μM, versus Comparator 1, 2 and 4
[4] = target: T1, MATR3 (Homo sapiens, UniProt P43243); test: CETSA-MS, MDA-MB-231 intact cells; details: 2 μM and 20 μM
T1 construct: endogenous in cells; host or cells: MDA-MB-231
Experimental: (§2) TNBC MDA-MB-231 cells were grown at 37° C. in 5% CO2 and suspended in warm media and split into 4 equal volumes. […] Cells were incubated and then pelleted. Following pelleting, the cells were washed, resuspended, and heated in a thermal gradient. Following heating, the samples were flash frozen and lysed in lysis buffer, agitated by vortex, and sonicated prior to centrifugation. The supernatant was collected and denaturation buffer added. Cold acetone was then added to the cell samples, and protein collected by centrifugation. Pellets were then washed twice with cold acetone and the washed pellets prior to labeling.
(§3) The intact cell protein samples and lysate protein samples were then digested and labeled for mass spectrometry analysis according to the manufacturer's recommended protocols. Digested and labeled protein samples were analyzed by mass spectrometry proteomic analysis and the resulting protein targets were analyzed and plotted.

[5] = target: T2, CAVIN1 (Homo sapiens, UniProt Q6NZI2); test: CETSA-MS, MDA-MB-231 intact cells; details: 2 μM and 20 μM
T2 construct: endogenous in cells; host or cells: MDA-MB-231
Experimental: as §2, §3

[6] = target: T3, CLUH (Homo sapiens, UniProt O75153); test: CETSA-MS, MDA-MB-231 intact cells; details: 2 μM and 20 μM
T3 construct: endogenous in cells; host or cells: MDA-MB-231
Experimental: as §2, §3

[7] = target: T4, PIP4K2A (Homo sapiens, UniProt P48426); test: CETSA-MS, MDA-MB-231 intact cells; details: 2 μM and 20 μM
T4 construct: endogenous in cells; host or cells: MDA-MB-231
Experimental: as §2, §3

[8] = target: T5, ESYT1 (Homo sapiens, UniProt Q9BSJ8); test: CETSA-MS, MDA-MB-231 intact cells; details: 2 μM and 20 μM
T5 construct: 148 targets unique to Compound 1 in MDA-MB-231 intact cells; endogenous in cells; host or cells: MDA-MB-231
Experimental: as §2, §3

[9] = target: T6, NAP1L1 (Homo sapiens, UniProt P55209); test: CETSA-MS, MDA-MB-231 intact cells; details: 2 μM and 20 μM
T6 construct: endogenous in cells; host or cells: MDA-MB-231
Experimental: as §2, §3

[10] = target: T7, IFT52 (Homo sapiens, UniProt Q9Y366); test: CETSA-MS, MDA-MB-231 intact cells; details: 2 μM and 20 μM
T7 construct: endogenous in cells; host or cells: MDA-MB-231
Experimental: as §2, §3

[11] = target: T8, INCENP (Homo sapiens, UniProt Q9NQS7); test: CETSA-MS, MDA-MB-231 intact cells; details: 2 μM and 20 μM
T8 construct: endogenous in cells; host or cells: MDA-MB-231
Experimental: as §2, §3

[12] = target: T9, IGFBP7 (Homo sapiens, UniProt Q16270); test: CETSA-MS, MDA-MB-231 intact cells; details: 2 μM and 20 μM
T9 construct: endogenous in cells; host or cells: MDA-MB-231
Experimental: as §2, §3

[13] = target: T10, MRPL55 (Homo sapiens, UniProt Q7Z7F7); test: CETSA-MS, MDA-MB-231 intact cells; details: 2 μM and 20 μM
T10 construct: endogenous in cells; host or cells: MDA-MB-231
Experimental: as §2, §3

[14] = target: T11, GSK3A (Homo sapiens, UniProt P49840); test: CETSA-MS, MDA-MB-231 intact cells; details: 2 μM and 20 μM
T11 construct: endogenous in cells; host or cells: MDA-MB-231
Experimental: as §2, §3

[15] = target: T12, SART3 (Homo sapiens, UniProt Q15020); test: CETSA-MS, MDA-MB-231 intact cells; details: 2 μM and 20 μM
T12 construct: endogenous in cells; host or cells: MDA-MB-231
Experimental: as §2, §3

[16] = target: T13, METTL18 (Homo sapiens, UniProt O95568); test: CETSA-MS, MDA-MB-231 intact cells; details: 2 μM and 20 μM
T13 construct: endogenous in cells; host or cells: MDA-MB-231
Experimental: as §2, §3

[17] = test system: Hs578T spheroids; test: CellTiter Glo 3D spheroid viability; details: 48 hours; Compound 1, Comparator 1, Comparator 2 5 μM; Comparator 4 10 μM
Experimental: Viability of the spheroids was assessed using CellTiter Glo 3D.

[18] = test system: BRAF; test: Phosphoproteomic analysis, MDA-MB-231; details: 5 μM, 2 hours, T-test p<0,05
Experimental: Following treatment, a sample of each of the three treatments was analyzed by Western Blot for expression of phosphoprotein targets.
In addition to western blot analysis, the cell lysate samples underwent phosphoproteomic analysis.

[19] = test system: MDA-MB-231 cells; test: CytoTox-Glo cytotoxicity assay with or without bafilomycin A1, 2 days; details: 5 μM
[20] = test system: MDA-MB-231 cells; test: Lysotracker Green staining, phase contrast microscopy; details: 5 μM, 2 hours
Experimental: MDA-MB-231 cells were treated with Compound 1 (5 μM) for 2 hours and stained with Lysotracker Green and imaged using phase contrast microscopy to examine the effect of Compound 1 treatment on vacuolization.

[21] = test system: MDA-MB-231 cells; test: Annexin V/PI staining followed by FACS, 24 hours
Experimental: To determine the effect of the different treatment conditions on cell death, Annexin V/PI staining was performed.

[22] = test system: Caspase 3/7; test: Caspase 3/7 Glo assay, MDA-MB-231 cells, 24 hours
Experimental: To determine how Compound 1 induces cell death, Caspase 3/7 activity was measured using the Caspase 3/7 Glo assay.
The effect of zVAD-FMK treatment on Caspase 3/7 activity was assessed.

[23] = test system: T-47D, HCC-1937, HS-578T, BT-474, MDA-MB-468, and MD-MB-453 cell lines; test: MTT cell viability of breast cancer cell line panel versus comparators, 48 hrs (FIG. 17)
[24] = target: CDK4/cyclin D1 (Homo sapiens, UniProt P11802); test: CDK4/cyclin D1 CETSA; parameters: endogenous in cells; host or cells: MDA-MB-231 (lysates and intact cells)
Experimental: Following treatment, cell lysates were thermally treated in a thermal gradient profile across a temperature range. Following the thermal shift, cell lysates were spun by centrifuge to pellet aggregate protein and the supernatant withdrawn. The supernatant was then denatured in buffer and heated to denature, reduce, and alkylate the supernatant proteins. Following heating and cooling to room temperature, cold acetone was added to the supernatant samples and proteins precipitated.
TNBC MDA-MB-231 cells were grown at 37° C. in 5% CO2 and suspended in warm media and split into 4 equal volumes. […] Cells were incubated and then pelleted. Following pelleting, the cells were washed, resuspended, and heated in a thermal gradient. Following heating, the samples were flash frozen and lysed in lysis buffer, agitated by vortex, and sonicated prior to centrifugation. The supernatant was collected and denaturation buffer added. Cold acetone was then added to the cell samples, and protein collected by centrifugation. […]
as §3

T2 sequence (Q6NZI2 whole entry): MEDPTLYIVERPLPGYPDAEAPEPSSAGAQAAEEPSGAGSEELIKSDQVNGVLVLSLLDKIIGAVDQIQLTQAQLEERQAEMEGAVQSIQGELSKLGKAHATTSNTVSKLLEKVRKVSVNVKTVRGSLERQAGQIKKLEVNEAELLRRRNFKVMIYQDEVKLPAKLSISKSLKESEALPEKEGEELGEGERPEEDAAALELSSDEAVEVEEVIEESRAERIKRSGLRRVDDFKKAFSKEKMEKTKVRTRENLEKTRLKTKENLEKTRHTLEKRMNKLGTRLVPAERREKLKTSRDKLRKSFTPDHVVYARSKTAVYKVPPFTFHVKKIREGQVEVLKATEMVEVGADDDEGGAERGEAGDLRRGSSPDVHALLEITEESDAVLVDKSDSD
T9 sequence (Q16270 27-282): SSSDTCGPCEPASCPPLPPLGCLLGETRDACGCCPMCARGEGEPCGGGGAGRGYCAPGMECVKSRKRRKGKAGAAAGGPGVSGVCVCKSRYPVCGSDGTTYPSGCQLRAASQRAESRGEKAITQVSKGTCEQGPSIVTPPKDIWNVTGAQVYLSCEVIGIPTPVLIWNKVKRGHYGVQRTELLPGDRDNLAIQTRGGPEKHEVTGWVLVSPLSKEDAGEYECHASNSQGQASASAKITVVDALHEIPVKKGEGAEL
T5 sequence (Q9BSJ8 whole entry): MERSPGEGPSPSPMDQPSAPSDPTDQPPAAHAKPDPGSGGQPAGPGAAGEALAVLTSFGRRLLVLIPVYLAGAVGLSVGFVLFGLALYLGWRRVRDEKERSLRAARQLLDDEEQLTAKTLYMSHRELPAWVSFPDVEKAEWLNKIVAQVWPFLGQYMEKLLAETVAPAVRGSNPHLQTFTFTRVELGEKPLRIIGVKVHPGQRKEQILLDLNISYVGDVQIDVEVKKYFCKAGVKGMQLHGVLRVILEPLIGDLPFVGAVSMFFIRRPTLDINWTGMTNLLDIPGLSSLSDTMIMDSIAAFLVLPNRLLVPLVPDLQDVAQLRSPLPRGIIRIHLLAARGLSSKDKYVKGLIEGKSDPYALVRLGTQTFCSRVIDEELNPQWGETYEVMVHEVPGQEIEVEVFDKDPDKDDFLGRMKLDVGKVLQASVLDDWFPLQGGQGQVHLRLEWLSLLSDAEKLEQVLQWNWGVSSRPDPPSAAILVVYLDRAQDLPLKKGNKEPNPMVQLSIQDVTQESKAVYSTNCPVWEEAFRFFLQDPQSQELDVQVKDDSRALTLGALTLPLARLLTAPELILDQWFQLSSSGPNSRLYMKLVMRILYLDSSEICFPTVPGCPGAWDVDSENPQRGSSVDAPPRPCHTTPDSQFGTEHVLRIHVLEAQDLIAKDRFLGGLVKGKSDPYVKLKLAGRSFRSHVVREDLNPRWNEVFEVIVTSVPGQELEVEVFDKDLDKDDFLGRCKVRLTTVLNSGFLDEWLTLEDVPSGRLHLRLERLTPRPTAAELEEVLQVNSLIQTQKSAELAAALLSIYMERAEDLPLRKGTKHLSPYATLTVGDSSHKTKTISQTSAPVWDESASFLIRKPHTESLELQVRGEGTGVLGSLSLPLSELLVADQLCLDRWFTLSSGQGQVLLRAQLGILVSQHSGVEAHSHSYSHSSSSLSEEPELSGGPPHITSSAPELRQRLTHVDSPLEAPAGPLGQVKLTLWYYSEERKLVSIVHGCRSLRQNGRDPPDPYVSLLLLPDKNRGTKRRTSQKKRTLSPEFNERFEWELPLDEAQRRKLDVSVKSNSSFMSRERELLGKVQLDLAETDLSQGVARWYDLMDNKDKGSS
T8 sequence (Q9NQS7 whole entry): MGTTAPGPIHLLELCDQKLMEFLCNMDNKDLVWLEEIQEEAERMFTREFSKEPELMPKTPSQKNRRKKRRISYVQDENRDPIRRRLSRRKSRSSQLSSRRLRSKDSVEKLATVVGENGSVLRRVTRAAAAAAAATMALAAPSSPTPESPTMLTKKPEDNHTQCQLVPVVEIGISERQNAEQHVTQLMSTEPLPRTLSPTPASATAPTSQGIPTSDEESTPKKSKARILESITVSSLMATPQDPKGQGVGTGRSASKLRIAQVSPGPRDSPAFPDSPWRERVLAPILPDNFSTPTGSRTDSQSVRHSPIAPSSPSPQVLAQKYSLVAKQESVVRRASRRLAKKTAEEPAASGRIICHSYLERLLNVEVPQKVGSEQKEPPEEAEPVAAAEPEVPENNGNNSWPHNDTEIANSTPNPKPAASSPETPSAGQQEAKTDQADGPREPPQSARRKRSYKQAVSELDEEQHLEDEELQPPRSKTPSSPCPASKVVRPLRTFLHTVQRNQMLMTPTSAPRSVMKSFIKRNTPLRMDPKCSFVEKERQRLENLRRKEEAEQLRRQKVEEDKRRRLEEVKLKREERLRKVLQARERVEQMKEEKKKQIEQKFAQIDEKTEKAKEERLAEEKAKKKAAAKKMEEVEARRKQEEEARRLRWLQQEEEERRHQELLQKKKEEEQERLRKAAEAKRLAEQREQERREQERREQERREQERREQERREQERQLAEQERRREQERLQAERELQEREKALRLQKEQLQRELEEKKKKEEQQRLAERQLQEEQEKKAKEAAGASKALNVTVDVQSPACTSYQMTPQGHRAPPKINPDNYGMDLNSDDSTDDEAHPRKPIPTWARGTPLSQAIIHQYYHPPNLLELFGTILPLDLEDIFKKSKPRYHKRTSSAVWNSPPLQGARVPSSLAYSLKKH
T7 sequence (Q9Y366 whole entry): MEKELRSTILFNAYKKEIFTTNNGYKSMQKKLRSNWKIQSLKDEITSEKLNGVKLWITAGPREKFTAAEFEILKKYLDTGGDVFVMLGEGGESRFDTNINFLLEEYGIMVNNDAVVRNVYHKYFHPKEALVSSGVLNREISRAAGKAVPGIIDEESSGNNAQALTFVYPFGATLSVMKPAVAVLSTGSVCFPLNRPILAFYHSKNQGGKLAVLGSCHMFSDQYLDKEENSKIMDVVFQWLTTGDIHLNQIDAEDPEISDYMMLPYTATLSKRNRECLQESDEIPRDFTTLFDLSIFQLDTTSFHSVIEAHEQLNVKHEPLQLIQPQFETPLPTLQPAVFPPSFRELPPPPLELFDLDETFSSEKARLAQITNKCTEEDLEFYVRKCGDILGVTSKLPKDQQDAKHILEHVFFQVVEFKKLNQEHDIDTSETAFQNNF
T1 sequence (P43243 whole entry): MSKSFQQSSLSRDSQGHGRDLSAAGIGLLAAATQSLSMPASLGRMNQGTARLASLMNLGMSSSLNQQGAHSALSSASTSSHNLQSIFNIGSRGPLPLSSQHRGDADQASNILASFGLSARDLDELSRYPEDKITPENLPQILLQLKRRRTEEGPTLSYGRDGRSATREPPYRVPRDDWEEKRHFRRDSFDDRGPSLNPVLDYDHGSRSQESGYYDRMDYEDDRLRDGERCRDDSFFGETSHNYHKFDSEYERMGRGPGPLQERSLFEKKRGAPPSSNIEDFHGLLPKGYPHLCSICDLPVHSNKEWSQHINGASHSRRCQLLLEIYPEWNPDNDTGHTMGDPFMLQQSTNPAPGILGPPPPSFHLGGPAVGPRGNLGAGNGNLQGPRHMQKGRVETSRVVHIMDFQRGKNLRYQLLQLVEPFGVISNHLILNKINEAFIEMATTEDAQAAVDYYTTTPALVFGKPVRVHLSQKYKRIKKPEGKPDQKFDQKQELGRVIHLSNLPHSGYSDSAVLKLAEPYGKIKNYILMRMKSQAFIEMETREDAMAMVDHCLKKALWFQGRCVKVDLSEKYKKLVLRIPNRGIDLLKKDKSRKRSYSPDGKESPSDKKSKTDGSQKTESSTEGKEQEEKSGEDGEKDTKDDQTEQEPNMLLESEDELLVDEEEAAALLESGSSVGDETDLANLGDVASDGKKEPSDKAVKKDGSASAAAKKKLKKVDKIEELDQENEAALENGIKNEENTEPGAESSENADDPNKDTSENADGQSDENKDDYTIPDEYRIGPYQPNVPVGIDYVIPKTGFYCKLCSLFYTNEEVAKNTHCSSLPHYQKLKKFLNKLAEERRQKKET
Chain of CDK4/cyclin D1 (P11802 whole entry): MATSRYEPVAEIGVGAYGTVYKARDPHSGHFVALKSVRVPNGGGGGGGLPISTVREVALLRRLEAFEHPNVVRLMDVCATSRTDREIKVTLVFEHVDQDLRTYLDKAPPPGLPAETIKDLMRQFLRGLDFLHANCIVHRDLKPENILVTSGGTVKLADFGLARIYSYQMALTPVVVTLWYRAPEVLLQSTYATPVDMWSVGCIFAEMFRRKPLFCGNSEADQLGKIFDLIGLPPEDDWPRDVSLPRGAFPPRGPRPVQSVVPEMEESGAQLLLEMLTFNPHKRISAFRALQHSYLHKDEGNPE
T6 sequence (P55209 whole entry): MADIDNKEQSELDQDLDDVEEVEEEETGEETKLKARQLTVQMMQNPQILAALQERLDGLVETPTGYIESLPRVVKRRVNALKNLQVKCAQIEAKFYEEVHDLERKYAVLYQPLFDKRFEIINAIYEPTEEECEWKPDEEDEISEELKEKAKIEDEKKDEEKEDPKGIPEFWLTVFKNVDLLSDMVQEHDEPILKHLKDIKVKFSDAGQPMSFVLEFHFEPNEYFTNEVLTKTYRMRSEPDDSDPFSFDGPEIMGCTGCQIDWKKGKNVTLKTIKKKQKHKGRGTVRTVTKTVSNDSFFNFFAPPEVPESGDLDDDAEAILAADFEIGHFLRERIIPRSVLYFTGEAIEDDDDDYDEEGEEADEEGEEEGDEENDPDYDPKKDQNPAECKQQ
T13 sequence (O95568 whole entry): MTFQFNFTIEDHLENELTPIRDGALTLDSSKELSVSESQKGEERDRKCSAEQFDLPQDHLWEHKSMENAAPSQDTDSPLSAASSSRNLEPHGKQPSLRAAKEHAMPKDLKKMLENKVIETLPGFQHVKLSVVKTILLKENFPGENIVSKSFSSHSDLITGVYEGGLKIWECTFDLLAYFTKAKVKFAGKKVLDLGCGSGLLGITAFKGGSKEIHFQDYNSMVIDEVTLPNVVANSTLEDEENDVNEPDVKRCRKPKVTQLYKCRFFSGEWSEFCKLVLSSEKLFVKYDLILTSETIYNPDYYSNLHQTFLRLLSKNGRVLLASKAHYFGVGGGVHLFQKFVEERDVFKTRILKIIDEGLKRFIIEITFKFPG

SMILES: CN1CCN(c2ccc(Nc3ncc4cc(C#N)c(=O)n(C5CCCC5)c4n3)cc2)CC1 [Compound 1, 8-cyclopentyl-2-((4-(4-methylpiperazin-1-yl)phenyl)amino)-7-oxo-7,8-dihydropyrido[2,3-d]pyrimidine-6-carbonitrile]
- BUB1 [1]: ↓
- BUB1 [2]: ↓
- p21 levels [3]: decreasing
- Group (CETSA-MS thermal shift) [4]: Stabilization
- Group (CETSA-MS thermal shift) [5]: Stabilization
- Group (CETSA-MS thermal shift) [6]: Stabilization
- Group (CETSA-MS thermal shift) [7]: Stabilization
- Group (CETSA-MS thermal shift) [8]: Stabilization
- Group (CETSA-MS thermal shift) [9]: Stabilization
- Group (CETSA-MS thermal shift) [10]: Stabilization
- Group (CETSA-MS thermal shift) [11]: Stabilization
- Group (CETSA-MS thermal shift) [12]: Stabilization
- Group (CETSA-MS thermal shift) [13]: Stabilization
- Group (CETSA-MS thermal shift) [14]: Stabilization
- Group (CETSA-MS thermal shift) [15]: Destabilization
- Group (CETSA-MS thermal shift) [16]: Stabilization
- decrease in organoid viability compared to DMSO [17]: ~40%
- Significance (phosphopeptide target) [18]: significant
- cell death (Cell Tox Glo), compound alone [19]: induced cell death
- effect of bafilomycin A1 cotreatment on cell death (Cell Tox Glo) [19]: enhanced
- vacuolization, Lysotracker Green staining [20]: extensive cytoplasmic vacuolization that colocalized with Lysotracker green staining
- cell death (Annexin V/PI) ([21]; Compound 1, Comparator 1, 2 5 μM, Comparator 4 10 μM): ~40%
- effect of zVAD-FMK on cell death, Annexin V/PI staining ([21]; zVAD-FMK 20 μM (FIG. 24)): unaffected by zVAD-FMK treatment
- Caspase 3/7 activity ([22]; Compound 1, Comparator 1, 2 5 μM, Comparator 4 10 μM (FIG. 22)): modest increase
- Caspase 3/7 activity ([22]; without zVAD-FMK, relative to DMSO (FIG. 26)): small increase
- effect of zVAD-FMK on induced Caspase 3/7 activity ([22]; zVAD-FMK 20 μM (FIG. 26)): inhibited by zVAD-FMK treatment
- dose dependence of cell death (MTT) ([23]; 2.5, 5.0, 10 μM, HCC-1937, Hs-578T, BT-474, MDA-MB-468, MDA-MB-453): dose-dependent effect
- cell death (MTT), comparison of treatments ([23]; Comparator 4 10 μM, Comparator 1 and 2 5 μM, Compound 1 2.5, 5.0, 10 μM): greater potency in inducing cell death compared to both Comparator 1 and Comparator 2
- CETSA [24]: POS
